{"source": "ChEMBL document CHEMBL1151621", "about": "“Correlation of the anticholinesterase and molluscicidal activity of the latex of Euphorbia royleana on the snail Lymnaea acuminata” (1984)", "key": {"Lymnaea [1]": {"test_system": "Lymnaea", "experiment": "Inhibition of acetylcholinesterase from nerve tissue of Lymnaea acuminata at 0.23 ug w/v relative to control", "set-up": "scale not given: the % may be the effect or the level left"}, "Lymnaea [2]": {"test_system": "Lymnaea", "experiment": "In vivo inhibition of acetylcholinesterase from nerve tissue of Lymnaea acuminata at 14 mg/L relative to control", "format": "functional", "set-up": "scale not given: the % may be the effect or the level left"}, "Lymnaea [3]": {"test_system": "Lymnaea", "experiment": "Inhibition of acetylcholinesterase from nerve tissue of Lymnaea acuminata at 2 ug w/v relative to control", "set-up": "scale not given: the % may be the effect or the level left"}, "Lymnaea [4]": {"test_system": "Lymnaea", "experiment": "In vivo inhibition of acetylcholinesterase from nerve tissue of Lymnaea acuminata at 27 mg/L relative to control", "format": "functional", "set-up": "scale not given: the % may be the effect or the level left"}, "Lymnaea [5]": {"test_system": "Lymnaea", "experiment": "Inhibition of acetylcholinesterase from nerve tissue of Lymnaea acuminata at 0.75 ug w/v relative to control", "set-up": "scale not given: the % may be the effect or the level left"}, "Lymnaea [6]": {"test_system": "Lymnaea", "experiment": "In vivo inhibition of acetylcholinesterase from nerve tissue of Lymnaea acuminata at 2.5 mg/L relative to control", "format": "functional", "set-up": "scale not given: the % may be the effect or the level left"}, "Lymnaea [7]": {"test_system": "Lymnaea", "experiment": "Inhibition of acetylcholinesterase from nerve tissue of Lymnaea acuminata at 1 ug w/v relative to control", "set-up": "scale not given: the % may be the effect or the level left"}, "Lymnaea [8]": {"test_system": "Lymnaea", "experiment": "Molluscicidal activity against Lymnaea acuminata within 24 hrs", "format": "functional"}, "Lymnaea [9]": {"test_system": "Lymnaea", "experiment": "Inhibition of acetylcholinesterase from nerve tissue of Lymnaea acuminata at 0.5 ug w/v relative to control", "set-up": "scale not given: the % may be the effect or the level left"}, "Lymnaea [10]": {"test_system": "Lymnaea", "experiment": "In vivo inhibition of acetylcholinesterase from nerve tissue of Lymnaea acuminata at 30 mg/l relative to control", "format": "functional", "set-up": "scale not given: the % may be the effect or the level left"}}, "data": [{"smiles": "CNC(=O)Oc1ccc2c(c1)[C@]1(C)CCN(C)[C@@H]1N2C", "values": [{"measurement": "Activity", "setting": "Lymnaea [1]", "result": 13, "unit": "%"}]}, {"smiles": "CNC(=O)Oc1cccc2ccccc12", "note": "[CARBARIL]", "values": [{"measurement": "Activity", "setting": "Lymnaea [2]", "result": 73, "unit": "%"}, {"measurement": "Activity", "setting": "Lymnaea [3]", "result": 67, "unit": "%"}]}, {"smiles": "COP(=S)(OC)SCC(=O)N(C)C=O", "note": "[FORMOTHION]", "values": [{"measurement": "Activity", "setting": "Lymnaea [4]", "result": 79, "unit": "%"}, {"measurement": "Activity", "setting": "Lymnaea [5]", "result": 47, "unit": "%"}]}, {"smiles": "CNC(=O)Oc1cc(C)c(N(C)C)c(C)c1", "note": "[MEXACARBATE]", "values": [{"measurement": "Activity", "setting": "Lymnaea [6]", "result": 53, "unit": "%"}, {"measurement": "Activity", "setting": "Lymnaea [7]", "result": 39, "unit": "%"}]}, {"smiles": "O=C(Nc1ccc([N+](=O)[O-])cc1Cl)c1cc(Cl)ccc1O", "note": "[NICLOSAMIDE]", "values": [{"measurement": "Activity", "setting": "Lymnaea [8]", "result": 63, "unit": "%"}]}, {"smiles": "CCOP(=S)(OCC)SCSCC", "note": "[PHORATE]", "values": [{"measurement": "Activity", "setting": "Lymnaea [9]", "result": 42, "unit": "%"}, {"measurement": "Activity", "setting": "Lymnaea [10]", "result": 67, "unit": "%"}]}]}
